Calls of active or inactive are those of the source. The rule behind the calls is not given here.
Legend:
Rattus norvegicus [1] = experiment: Neuroprotective activity in Sprague-Dawley rat model of spinal cord injury assessed as decrease in IL1-beta levels in spinal cord tissue at 200 mg/kg, ip by ELISA; type: functional, organism-based
Rattus norvegicus [2] = experiment: Neuroprotective activity in Sprague-Dawley rat model of spinal cord injury assessed as decrease in IL1-beta levels in spinal cord tissue at 200 mg/kg, ip by ELISA in presence of 25 umol/kg of HO-1 inhibitor ZnPP; type: functional, organism-based
Rattus norvegicus [3] = experiment: Neuroprotective activity in Sprague-Dawley rat model of spinal cord injury assessed as decrease in IL1-beta levels in spinal cord tissue at 200 mg/kg, ip by ELISA in presence of Akt inhibitor LY294002; type: functional, organism-based
Rattus norvegicus [4] = experiment: Neuroprotective activity in Sprague-Dawley rat model of spinal cord injury assessed as decrease in TNF-alpha levels in spinal cord tissue at 200 mg/kg, ip by ELISA; type: functional, organism-based
Rattus norvegicus [5] = experiment: Neuroprotective activity in Sprague-Dawley rat model of spinal cord injury assessed as decrease in TNF-alpha levels in spinal cord tissue at 200 mg/kg, ip by ELISA in presence of 25 umol/kg of HO-1 inhibitor ZnPP; type: functional, organism-based
Rattus norvegicus [6] = experiment: Neuroprotective activity in Sprague-Dawley rat model of spinal cord injury assessed as decrease in TNF-alpha levels in spinal cord tissue at 200 mg/kg, ip by ELISA in presence of Akt inhibitor LY294002; type: functional, organism-based
Rattus norvegicus [7] = experiment: Neuroprotective activity in Sprague-Dawley rat model of spinal cord injury assessed as decrease in IL-18 levels in spinal cord tissue at 200 mg/kg, ip by ELISA; type: functional, organism-based
Rattus norvegicus [8] = experiment: Neuroprotective activity in Sprague-Dawley rat model of spinal cord injury assessed as decrease in IL-18 levels in spinal cord tissue at 200 mg/kg, ip by ELISA in presence of 25 umol/kg of HO-1 inhibitor ZnPP; type: functional, organism-based
Rattus norvegicus [9] = experiment: Neuroprotective activity in Sprague-Dawley rat model of spinal cord injury assessed as decrease in IL-18 levels in spinal cord tissue at 200 mg/kg, ip by ELISA in presence of Akt inhibitor LY294002; type: functional, organism-based
Rattus norvegicus [10] = experiment: Neuroprotective activity in Sprague-Dawley rat model of spinal cord injury assessed as accumulation at G0/G1 phase at 200 mg/kg, ip by TUNEL staining-based flow cytometric analysis (reference value: 34.1 %); type: functional
Rattus norvegicus [11] = experiment: Neuroprotective activity in Sprague-Dawley rat model of spinal cord injury assessed as accumulation at G0/G1 phase at 200 mg/kg, ip by TUNEL staining-based flow cytometric analysis in presence of 25 umol/kg of HO-1 inhibitor ZnPP (reference value: 34.1 %); type: functional
Rattus norvegicus [12] = experiment: Neuroprotective activity in Sprague-Dawley rat model of spinal cord injury assessed as accumulation at G0/G1 phase at 200 mg/kg, ip by TUNEL staining-based flow cytometric analysis in presence of Akt inhibitor LY294002 (reference value: 34.1 %); type: functional
Rattus norvegicus [13] = experiment: Neuroprotective activity in Sprague-Dawley rat model of spinal cord injury assessed as decrease in activated caspase-3 level at 200 mg/kg, ip; type: functional, organism-based
Rattus norvegicus [14] = experiment: Neuroprotective activity in Sprague-Dawley rat model of spinal cord injury assessed as decrease in activated caspase-3 level at 200 mg/kg, ip in presence of 25 umol/kg of HO-1 inhibitor ZnPP; type: functional, organism-based
Rattus norvegicus [15] = experiment: Neuroprotective activity in Sprague-Dawley rat model of spinal cord injury assessed as decrease in activated caspase-3 level at 200 mg/kg, ip in presence of Akt inhibitor LY294002; type: functional, organism-based
Rattus norvegicus [16] = experiment: Neuroprotective activity in Sprague-Dawley rat model of spinal cord injury assessed as decrease in activated caspase-9 level at 200 mg/kg, ip; type: functional, organism-based
Rattus norvegicus [17] = experiment: Neuroprotective activity in Sprague-Dawley rat model of spinal cord injury assessed as decrease in activated caspase-9 level at 200 mg/kg, ip in presence of 25 umol/kg of HO-1 inhibitor ZnPP; type: functional, organism-based
Rattus norvegicus [18] = experiment: Neuroprotective activity in Sprague-Dawley rat model of spinal cord injury assessed as decrease in activated caspase-9 level at 200 mg/kg, ip in presence of Akt inhibitor LY294002; type: functional, organism-based
Rattus norvegicus [19] = experiment: Neuroprotective activity in Sprague-Dawley rat model of spinal cord injury assessed as decrease in thiobarbituric acid reactive substances level at 200 mg/kg, ip by malondialdehyde assay; type: functional, organism-based
Rattus norvegicus [20] = experiment: Neuroprotective activity in Sprague-Dawley rat model of spinal cord injury assessed as decrease in thiobarbituric acid reactive substances level at 200 mg/kg, ip by malondialdehyde assay in presence of 25 umol/kg of HO-1 inhibitor ZnPP; type: functional, organism-based
Rattus norvegicus [21] = experiment: Neuroprotective activity in Sprague-Dawley rat model of spinal cord injury assessed as decrease in thiobarbituric acid reactive substances level at 200 mg/kg, ip by malondialdehyde assay in presence of Akt inhibitor LY294002; type: functional, organism-based
Rattus norvegicus [22] = experiment: Neuroprotective activity in Sprague-Dawley rat model of spinal cord injury assessed as increase in glutathione level at 200 mg/kg, ip by reduced glutathione assay; type: functional, organism-based
Rattus norvegicus [23] = experiment: Neuroprotective activity in Sprague-Dawley rat model of spinal cord injury assessed as increase in glutathione level at 200 mg/kg, ip by reduced glutathione assay in presence of 25 umol/kg of HO-1 inhibitor ZnPP; type: functional, organism-based
Rattus norvegicus [24] = experiment: Neuroprotective activity in Sprague-Dawley rat model of spinal cord injury assessed as increase in glutathione level at 200 mg/kg, ip by reduced glutathione assay in presence of Akt inhibitor LY294002; type: functional, organism-based
Rattus norvegicus [25] = experiment: Neuroprotective activity in Sprague-Dawley rat model of spinal cord injury assessed as increase in superoxide dismutase activity at 200 mg/kg, ip; type: functional, organism-based
Rattus norvegicus [26] = experiment: Neuroprotective activity in Sprague-Dawley rat model of spinal cord injury assessed as increase in superoxide dismutase activity at 200 mg/kg, ip in presence of 25 umol/kg of HO-1 inhibitor ZnPP; type: functional, organism-based
Rattus norvegicus [27] = experiment: Neuroprotective activity in Sprague-Dawley rat model of spinal cord injury assessed as increase in superoxide dismutase activity at 200 mg/kg, ip in presence of Akt inhibitor LY294002; type: functional, organism-based
Rattus norvegicus [28] = experiment: Neuroprotective activity in Sprague-Dawley rat model of spinal cord injury assessed as increase in HO-1 mRNA expression at 200 mg/kg, ip by real time PCR method; type: functional, organism-based
Rattus norvegicus [29] = experiment: Neuroprotective activity in Sprague-Dawley rat model of spinal cord injury assessed as increase in HO-1 mRNA expression at 200 mg/kg, ip by real time PCR method in presence of 25 umol/kg of HO-1 inhibitor ZnPP; type: functional, organism-based
Rattus norvegicus [30] = experiment: Neuroprotective activity in Sprague-Dawley rat model of spinal cord injury assessed as increase in HO-1 mRNA expression at 200 mg/kg, ip by real time PCR method in presence of Akt inhibitor LY294002; type: functional, organism-based
Rattus norvegicus [31] = experiment: Neuroprotective activity in Sprague-Dawley rat model of spinal cord injury assessed as increase in Akt phosphorylation at 200 mg/kg, ip by Western blot analysis; type: functional, organism-based
Rattus norvegicus [32] = experiment: Neuroprotective activity in Sprague-Dawley rat model of spinal cord injury assessed as increase in Akt phosphorylation at 200 mg/kg, ip by western blot analysis in presence of 25 umol/kg of HO-1 inhibitor ZnPP; type: functional, organism-based
Rattus norvegicus [33] = experiment: Neuroprotective activity in Sprague-Dawley rat model of spinal cord injury assessed as increase in Akt phosphorylation at 200 mg/kg, ip by western blot analysis in presence of Akt inhibitor LY294002; type: functional, organism-based
Rattus norvegicus [34] = experiment: Neuroprotective activity in Sprague-Dawley rat model of spinal cord injury assessed as increase in Nrf2 mRNA expression at 200 mg/kg, ip by real time PCR method; type: functional, organism-based
Rattus norvegicus [35] = experiment: Neuroprotective activity in Sprague-Dawley rat model of spinal cord injury assessed as increase in Nrf2 mRNA expression at 200 mg/kg, ip by real time PCR method in presence of 25 umol/kg of HO-1 inhibitor ZnPP; type: functional, organism-based
Rattus norvegicus [36] = experiment: Neuroprotective activity in Sprague-Dawley rat model of spinal cord injury assessed as increase in Nrf2 mRNA expression at 200 mg/kg, ip by real time PCR method in presence of Akt inhibitor LY294002; type: functional, organism-based
Rattus norvegicus [37] = experiment: Induction of Nrf2 binding to HO-1 promoter in Sprague-Dawley rat model of spinal cord injury at 200 mg/kg, ip by chromatin immunoprecipitation assay; type: functional, organism-based
Rattus norvegicus [38] = experiment: Induction of Nrf2 binding to HO-1 promoter in Sprague-Dawley rat model of spinal cord injury at 200 mg/kg, ip by chromatin immunoprecipitation assay in presence of 25 umol/kg of HO-1 inhibitor ZnPP; type: functional, organism-based
Rattus norvegicus [39] = experiment: Induction of Nrf2 binding to HO-1 promoter in Sprague-Dawley rat model of spinal cord injury at 200 mg/kg, ip by chromatin immunoprecipitation assay in presence of Akt inhibitor LY294002; type: functional, organism-based
Rattus norvegicus [40] = experiment: Neuroprotective activity in Sprague-Dawley rat model of spinal cord injury assessed as locomotor function recovery at 200 mg/kg, ip measured during 3 to 28 days; type: functional, organism-based
Rattus norvegicus [41] = experiment: Neuroprotective activity in Sprague-Dawley rat model of spinal cord injury assessed as decrease in Evans blue leakage in spinal cord tissue at 200 mg/kg, ip after 24 hrs in presence of 25 umol/kg of HO-1 inhibitor ZnPP; type: functional, organism-based
Rattus norvegicus [42] = experiment: Neuroprotective activity in Sprague-Dawley rat model of spinal cord injury assessed as locomotor function recovery at 200 mg/kg, ip measured during 3 to 28 days in presence of 25 umol/kg of HO-1 inhibitor ZnPP; type: functional, organism-based
Rattus norvegicus [43] = experiment: Neuroprotective activity in Sprague-Dawley rat model of spinal cord injury assessed as locomotor function recovery at 200 mg/kg, ip measured during 3 to 28 days in presence of Akt inhibitor LY294002; type: functional, organism-based
Rattus norvegicus [44] = experiment: Neuroprotective activity in Sprague-Dawley rat model of spinal cord injury assessed as decrease in Evans blue leakage in spinal cord tissue at 200 mg/kg, ip after 24 hrs; type: functional, organism-based
Rattus norvegicus [45] = experiment: Neuroprotective activity in Sprague-Dawley rat model of spinal cord injury assessed as decrease in Evans blue leakage in spinal cord tissue at 200 mg/kg, ip after 24 hrs in presence of Akt inhibitor LY294002; type: functional, organism-based
Rattus norvegicus [46] = experiment: Neuroprotective activity in Sprague-Dawley rat model of spinal cord injury assessed as decrease in Evans blue leakage in spinal cord tissue at 200 mg/kg, ip after 48 hrs; type: functional, organism-based
Rattus norvegicus [47] = experiment: Neuroprotective activity in Sprague-Dawley rat model of spinal cord injury assessed as decrease in Evans blue leakage in spinal cord tissue at 200 mg/kg, ip after 48 hrs in presence of 25 umol/kg of HO-1 inhibitor ZnPP; type: functional, organism-based
Rattus norvegicus [48] = experiment: Neuroprotective activity in Sprague-Dawley rat model of spinal cord injury assessed as decrease in Evans blue leakage in spinal cord tissue at 200 mg/kg, ip after 48 hrs in presence of Akt inhibitor LY294002; type: functional, organism-based

Cc1nc(C)c(C)nc1C [LIGUSTRAZINE]
Activity (Rattus norvegicus [1]): Active | Activity (Rattus norvegicus [2]): inactive | Activity (Rattus norvegicus [3]): inactive | Activity (Rattus norvegicus [4]): Active | Activity (Rattus norvegicus [5]): inactive | Activity (Rattus norvegicus [6]): inactive | Activity (Rattus norvegicus [7]): Active | Activity (Rattus norvegicus [8]): inactive | Activity (Rattus norvegicus [9]): inactive | Activity (Rattus norvegicus [10]): 8% | Activity (Rattus norvegicus [11]): 15% | Activity (Rattus norvegicus [12]): 16.2% | Activity (Rattus norvegicus [13]): Active | Activity (Rattus norvegicus [14]): inactive | Activity (Rattus norvegicus [15]): inactive | Activity (Rattus norvegicus [16]): Active | Activity (Rattus norvegicus [17]): inactive | Activity (Rattus norvegicus [18]): inactive | Activity (Rattus norvegicus [19]): Active | Activity (Rattus norvegicus [20]): inactive | Activity (Rattus norvegicus [21]): inactive | Activity (Rattus norvegicus [22]): Active | Activity (Rattus norvegicus [23]): inactive | Activity (Rattus norvegicus [24]): inactive | Activity (Rattus norvegicus [25]): Active | Activity (Rattus norvegicus [26]): inactive | Activity (Rattus norvegicus [27]): inactive | Activity (Rattus norvegicus [28]): Active | Activity (Rattus norvegicus [29]): inactive | Activity (Rattus norvegicus [30]): inactive | Activity (Rattus norvegicus [31]): Active | Activity (Rattus norvegicus [32]): Active | Activity (Rattus norvegicus [33]): Active | Activity (Rattus norvegicus [34]): Active | Activity (Rattus norvegicus [35]): Active | Activity (Rattus norvegicus [36]): inactive | Activity (Rattus norvegicus [37]): Active | Activity (Rattus norvegicus [38]): Active | Activity (Rattus norvegicus [39]): inactive | Activity (Rattus norvegicus [40]): Active | Activity (Rattus norvegicus [41]): inactive | Activity (Rattus norvegicus [42]): inactive | Activity (Rattus norvegicus [43]): inactive | Activity (Rattus norvegicus [44]): Active | Activity (Rattus norvegicus [45]): inactive | Activity (Rattus norvegicus [46]): Active | Activity (Rattus norvegicus [47]): inactive | Activity (Rattus norvegicus [48]): inactive
